Measured values published in paper PMC4448990 (Pharmacology Research & Perspectives, 2015).

How the values were obtained:
[1] = system: Glutamate, NMDA, phencyclidine site; assay: in vitro selectivity profile; type: binding; conditions: eslicarbazepine 400 μmol/L
Serotonin, 5HT4 = assay: in vitro selectivity profile; type: binding; conditions: eslicarbazepine 400 μmol/L
Histamine, H1 = assay: in vitro selectivity profile; type: binding; conditions: eslicarbazepine 400 μmol/L
[2] = system: GABA A, BDZ, alpha 1 site; assay: in vitro selectivity profile; type: binding; conditions: eslicarbazepine 400 μmol/L
hCav2.1 calcium channels = hCav2.1 calcium channels (Homo sapiens, UniProt O00555); assay: whole-cell patch clamp, hCav2.1 in CHO cells; type: cell-based; conditions: IC50, hCav2.1 calcium peak currents, 0.3–1000 μmol/L, holding potential −80 mV
Dopamine transporter (h) = Dopamine transporter (h) (Homo sapiens, UniProt Q01959); assay: in vitro selectivity profile; type: binding
[3] = system: Glycine, strychnine-sensitive; assay: in vitro selectivity profile; type: binding; conditions: eslicarbazepine 400 μmol/L
Kinase, protein, Fyn (h) = Kinase, protein, Fyn (h) (Homo sapiens, UniProt P06241); assay: in vitro selectivity profile; type: biochemical
Chain of Kinase, protein, Fyn (h) (P06241 whole entry): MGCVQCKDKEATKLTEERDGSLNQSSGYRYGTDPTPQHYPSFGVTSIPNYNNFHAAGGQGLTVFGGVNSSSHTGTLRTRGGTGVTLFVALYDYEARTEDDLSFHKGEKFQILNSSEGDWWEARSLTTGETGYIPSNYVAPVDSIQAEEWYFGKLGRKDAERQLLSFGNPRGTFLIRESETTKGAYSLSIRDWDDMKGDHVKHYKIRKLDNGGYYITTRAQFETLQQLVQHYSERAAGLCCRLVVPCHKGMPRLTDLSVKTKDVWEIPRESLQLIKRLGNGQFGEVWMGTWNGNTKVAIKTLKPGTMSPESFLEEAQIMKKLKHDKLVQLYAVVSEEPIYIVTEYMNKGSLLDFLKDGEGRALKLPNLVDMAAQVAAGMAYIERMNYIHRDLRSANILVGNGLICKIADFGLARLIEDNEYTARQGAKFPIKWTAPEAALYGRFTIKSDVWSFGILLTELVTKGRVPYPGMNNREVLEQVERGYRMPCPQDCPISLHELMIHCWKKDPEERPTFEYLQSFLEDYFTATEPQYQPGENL

Adrenergic, alpha2A (h) = Adrenergic, alpha2A (h) (Homo sapiens, UniProt P08913); assay: in vitro selectivity profile; type: binding
Chain of Adrenergic, alpha2A (h) (P08913 whole entry): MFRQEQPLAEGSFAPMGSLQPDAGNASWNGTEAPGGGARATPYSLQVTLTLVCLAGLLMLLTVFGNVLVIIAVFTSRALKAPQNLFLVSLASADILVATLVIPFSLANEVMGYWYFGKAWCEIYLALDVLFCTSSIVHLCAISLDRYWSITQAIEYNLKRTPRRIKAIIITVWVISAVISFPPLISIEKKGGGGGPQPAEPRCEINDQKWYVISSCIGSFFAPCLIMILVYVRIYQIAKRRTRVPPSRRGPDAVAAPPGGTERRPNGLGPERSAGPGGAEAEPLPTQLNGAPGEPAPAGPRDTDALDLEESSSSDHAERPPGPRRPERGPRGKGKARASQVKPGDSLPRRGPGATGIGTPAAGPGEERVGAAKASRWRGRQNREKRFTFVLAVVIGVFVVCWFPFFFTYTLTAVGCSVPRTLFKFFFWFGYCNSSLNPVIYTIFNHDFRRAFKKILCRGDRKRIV

[4] = molecular target: Serotonin transporter (h) (Homo sapiens, UniProt P31645); assay: in vitro selectivity profile; type: binding
Chain of Serotonin transporter (h) (P31645 whole entry): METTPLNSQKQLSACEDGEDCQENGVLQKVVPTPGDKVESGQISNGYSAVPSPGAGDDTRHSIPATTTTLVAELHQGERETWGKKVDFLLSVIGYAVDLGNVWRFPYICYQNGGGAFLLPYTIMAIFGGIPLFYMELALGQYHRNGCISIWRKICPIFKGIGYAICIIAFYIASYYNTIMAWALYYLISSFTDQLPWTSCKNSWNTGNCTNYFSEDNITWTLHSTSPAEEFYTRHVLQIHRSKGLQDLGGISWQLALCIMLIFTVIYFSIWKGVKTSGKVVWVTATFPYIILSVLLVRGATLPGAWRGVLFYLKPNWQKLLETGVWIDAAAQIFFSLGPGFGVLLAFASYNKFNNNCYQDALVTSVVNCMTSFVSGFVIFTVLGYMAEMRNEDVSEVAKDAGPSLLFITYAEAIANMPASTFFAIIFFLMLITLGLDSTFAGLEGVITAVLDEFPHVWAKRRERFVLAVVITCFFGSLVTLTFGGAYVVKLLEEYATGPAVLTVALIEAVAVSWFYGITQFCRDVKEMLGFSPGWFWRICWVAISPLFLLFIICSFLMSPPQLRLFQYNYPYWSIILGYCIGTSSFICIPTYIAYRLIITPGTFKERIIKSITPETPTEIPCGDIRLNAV

Serotonin, 5HT2A (h) = Serotonin, 5HT2A (h) (Homo sapiens, UniProt P28223); assay: in vitro selectivity profile; type: binding
Sigma 2 = assay: in vitro selectivity profile; type: binding; conditions: eslicarbazepine 400 μmol/L
Serotonin, 5HT2C = assay: in vitro selectivity profile; type: binding; conditions: eslicarbazepine 400 μmol/L
[5] = system: Potassium channel, ATP-sensitive; assay: in vitro selectivity profile; type: binding; conditions: eslicarbazepine 400 μmol/L
[6] = molecular target: Kinase, protein, SGK1 (h) (Homo sapiens, UniProt O00141); assay: in vitro selectivity profile; type: biochemical
Serotonin, 5HT3 = assay: in vitro selectivity profile; type: binding; conditions: eslicarbazepine 400 μmol/L
Neurokinin, NK1 = assay: in vitro selectivity profile; type: binding; conditions: eslicarbazepine 400 μmol/L
[7] = molecular target: Kinase, protein, GSK3b (h) (Homo sapiens, UniProt P49841); assay: in vitro selectivity profile; type: biochemical
Dopamine, D3 = assay: in vitro selectivity profile; type: binding; conditions: eslicarbazepine 400 μmol/L
Histamine, H3 = assay: in vitro selectivity profile; type: binding; conditions: eslicarbazepine 400 μmol/L
Serotonin, 5HT1A (h) = Serotonin, 5HT1A (h) (Homo sapiens, UniProt P08908); assay: in vitro selectivity profile; type: binding
Opioid, kappa 1 = assay: in vitro selectivity profile; type: binding; conditions: eslicarbazepine 400 μmol/L
[8] = molecular target: hKv7.2 potassium channels (Homo sapiens, UniProt O43526); assay: whole-cell patch clamp, hKv7.2 in CHO cells; type: cell-based; conditions: depolarizing pulse +20 mV from holding potential −80 mV
Chain of hKv7.2 potassium channels (O43526 whole entry): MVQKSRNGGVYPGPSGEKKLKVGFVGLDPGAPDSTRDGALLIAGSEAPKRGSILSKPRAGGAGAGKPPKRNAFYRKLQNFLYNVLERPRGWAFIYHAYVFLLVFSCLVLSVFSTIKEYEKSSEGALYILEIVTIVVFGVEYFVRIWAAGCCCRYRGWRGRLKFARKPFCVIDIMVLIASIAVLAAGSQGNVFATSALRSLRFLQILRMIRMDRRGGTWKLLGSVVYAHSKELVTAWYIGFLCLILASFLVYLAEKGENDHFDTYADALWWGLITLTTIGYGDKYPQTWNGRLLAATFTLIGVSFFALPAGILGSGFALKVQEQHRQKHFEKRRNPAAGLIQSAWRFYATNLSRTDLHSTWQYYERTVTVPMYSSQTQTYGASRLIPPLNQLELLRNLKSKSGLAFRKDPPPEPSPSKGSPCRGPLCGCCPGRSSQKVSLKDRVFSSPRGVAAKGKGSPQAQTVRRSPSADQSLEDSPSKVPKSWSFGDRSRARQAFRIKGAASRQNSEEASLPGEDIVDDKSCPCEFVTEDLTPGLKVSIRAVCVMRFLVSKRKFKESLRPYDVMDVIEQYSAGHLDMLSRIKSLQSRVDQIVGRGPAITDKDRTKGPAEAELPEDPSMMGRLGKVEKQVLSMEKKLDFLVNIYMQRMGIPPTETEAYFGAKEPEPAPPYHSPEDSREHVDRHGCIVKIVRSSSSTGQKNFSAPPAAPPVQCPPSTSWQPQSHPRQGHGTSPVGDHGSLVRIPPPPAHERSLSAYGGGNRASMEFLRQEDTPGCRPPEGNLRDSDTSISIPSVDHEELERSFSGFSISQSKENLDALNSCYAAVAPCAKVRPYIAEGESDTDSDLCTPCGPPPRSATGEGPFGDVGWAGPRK

[9] = molecular target: Protease, caspase, CASP-3 (h) (Homo sapiens, UniProt P42574); assay: in vitro selectivity profile; type: biochemical
Galanin, nonselective = assay: in vitro selectivity profile; type: binding; conditions: eslicarbazepine 400 μmol/L
P-glycoprotein = conditions: ref Fortuna et al. [2012]; cited from earlier work
Muscarinic, M4 (h) = Muscarinic, M4 (h) (Homo sapiens, UniProt P08173); assay: in vitro selectivity profile; type: binding
Chain of Muscarinic, M4 (h) (P08173 whole entry): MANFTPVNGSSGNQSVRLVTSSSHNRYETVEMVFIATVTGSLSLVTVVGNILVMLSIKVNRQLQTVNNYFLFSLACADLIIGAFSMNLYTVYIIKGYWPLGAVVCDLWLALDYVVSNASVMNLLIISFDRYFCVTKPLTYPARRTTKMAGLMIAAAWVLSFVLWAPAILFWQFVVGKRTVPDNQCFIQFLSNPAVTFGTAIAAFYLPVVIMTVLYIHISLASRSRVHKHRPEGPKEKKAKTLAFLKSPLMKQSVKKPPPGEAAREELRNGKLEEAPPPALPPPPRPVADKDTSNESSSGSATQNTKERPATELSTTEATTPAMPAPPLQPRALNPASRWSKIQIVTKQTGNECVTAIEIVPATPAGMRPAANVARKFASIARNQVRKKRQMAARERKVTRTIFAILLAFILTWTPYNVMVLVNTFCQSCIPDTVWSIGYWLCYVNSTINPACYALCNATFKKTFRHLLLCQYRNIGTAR

Sodium, site 2 = assay: in vitro selectivity profile; type: binding; conditions: eslicarbazepine 400 μmol/L
[10] = molecular target: human α2β2γ2 GABAA receptors (Homo sapiens, UniProt P18507+P47869+P47870); assay: submaximal GABA currents in Ltk cells; type: cell-based
Chain of human α2β2γ2 GABAA receptors (P47869 29-451): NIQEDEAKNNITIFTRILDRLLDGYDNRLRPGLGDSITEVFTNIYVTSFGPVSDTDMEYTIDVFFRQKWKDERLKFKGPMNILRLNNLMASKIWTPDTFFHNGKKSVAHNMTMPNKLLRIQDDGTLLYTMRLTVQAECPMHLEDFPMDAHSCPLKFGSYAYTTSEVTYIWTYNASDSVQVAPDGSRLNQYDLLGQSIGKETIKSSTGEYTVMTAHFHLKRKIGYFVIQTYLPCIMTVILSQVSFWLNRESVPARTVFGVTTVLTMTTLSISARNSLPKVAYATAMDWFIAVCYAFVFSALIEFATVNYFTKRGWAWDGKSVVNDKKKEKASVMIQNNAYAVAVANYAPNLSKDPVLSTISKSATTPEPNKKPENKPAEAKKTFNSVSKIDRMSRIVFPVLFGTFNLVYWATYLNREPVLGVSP
Chain of human α2β2γ2 GABAA receptors (P47870 25-512 limits assumed): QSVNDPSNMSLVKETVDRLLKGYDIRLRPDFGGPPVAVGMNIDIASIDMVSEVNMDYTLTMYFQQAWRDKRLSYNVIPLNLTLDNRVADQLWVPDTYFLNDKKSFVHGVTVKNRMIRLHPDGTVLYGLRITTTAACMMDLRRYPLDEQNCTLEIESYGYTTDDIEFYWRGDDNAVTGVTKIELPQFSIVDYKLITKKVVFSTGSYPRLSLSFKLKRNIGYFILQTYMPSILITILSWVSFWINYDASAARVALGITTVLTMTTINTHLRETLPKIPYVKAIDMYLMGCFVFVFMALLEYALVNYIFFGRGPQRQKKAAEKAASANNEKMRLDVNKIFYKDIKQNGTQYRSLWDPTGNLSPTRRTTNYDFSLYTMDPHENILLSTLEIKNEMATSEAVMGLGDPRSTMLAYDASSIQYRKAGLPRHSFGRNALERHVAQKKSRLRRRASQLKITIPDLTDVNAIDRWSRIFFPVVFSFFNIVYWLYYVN
Chain of human α2β2γ2 GABAA receptors (P18507 40-475): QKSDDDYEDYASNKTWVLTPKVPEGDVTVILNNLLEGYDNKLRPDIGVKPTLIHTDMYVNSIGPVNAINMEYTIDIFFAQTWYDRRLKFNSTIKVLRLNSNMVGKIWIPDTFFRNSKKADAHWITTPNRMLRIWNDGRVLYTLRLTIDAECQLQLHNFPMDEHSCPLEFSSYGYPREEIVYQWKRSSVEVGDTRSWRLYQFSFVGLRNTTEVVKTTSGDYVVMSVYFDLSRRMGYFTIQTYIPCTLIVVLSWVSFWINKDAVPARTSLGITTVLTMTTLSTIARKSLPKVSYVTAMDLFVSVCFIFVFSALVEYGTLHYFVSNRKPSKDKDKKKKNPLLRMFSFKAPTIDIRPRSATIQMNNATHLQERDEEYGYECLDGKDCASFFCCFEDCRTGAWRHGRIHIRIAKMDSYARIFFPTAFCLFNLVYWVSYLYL

Glutamate, AMPA site = assay: in vitro selectivity profile; type: binding; conditions: eslicarbazepine 400 μmol/L
Serotonin, 5HT6 (h) = Serotonin, 5HT6 (h) (Homo sapiens, UniProt P50406); assay: in vitro selectivity profile; type: binding
transient Na+ channels = conditions: ref Döser et al. [2013c], [2015]; cited from earlier work
Oxygenase, COX-2 = assay: in vitro selectivity profile; type: biochemical; conditions: eslicarbazepine 400 μmol/L
[11] = system: Decarboxylase, glutamic acid; assay: in vitro selectivity profile; type: biochemical; conditions: eslicarbazepine 400 μmol/L
Sigma 1 = assay: in vitro selectivity profile; type: binding; conditions: eslicarbazepine 400 μmol/L
[12] = system: GABA A, BDZ, alpha 6 site; assay: in vitro selectivity profile; type: binding; conditions: eslicarbazepine 400 μmol/L
Serotonin, 5HT1B = assay: in vitro selectivity profile; type: binding; conditions: eslicarbazepine 400 μmol/L
Dopamine, D1 (h) = Dopamine, D1 (h) (Homo sapiens, UniProt P21728); assay: in vitro selectivity profile; type: binding
Serotonin, 5HT7 (h) = Serotonin, 5HT7 (h) (Homo sapiens, UniProt P34969); assay: in vitro selectivity profile; type: binding
Chain of Serotonin, 5HT7 (h) (P34969 whole entry): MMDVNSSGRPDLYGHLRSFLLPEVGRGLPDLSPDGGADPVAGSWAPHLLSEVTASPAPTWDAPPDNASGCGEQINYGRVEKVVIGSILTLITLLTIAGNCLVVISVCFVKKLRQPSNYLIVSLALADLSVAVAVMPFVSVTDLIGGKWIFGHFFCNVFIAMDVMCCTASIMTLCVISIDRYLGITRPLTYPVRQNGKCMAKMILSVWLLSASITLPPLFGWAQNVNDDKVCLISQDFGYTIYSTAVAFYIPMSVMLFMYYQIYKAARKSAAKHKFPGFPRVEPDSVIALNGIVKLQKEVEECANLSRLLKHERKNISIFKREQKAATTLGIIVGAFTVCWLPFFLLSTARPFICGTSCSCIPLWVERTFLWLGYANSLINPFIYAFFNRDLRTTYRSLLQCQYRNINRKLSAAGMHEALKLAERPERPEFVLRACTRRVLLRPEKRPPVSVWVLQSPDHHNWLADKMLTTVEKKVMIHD

NC(=O)N1c2ccccc2C[C@H](O)c2ccccc21 [eslicarbazepine]
% inhibition [1]: 0.0%
% inhibition (Serotonin, 5HT4): 7.38%
% inhibition (Histamine, H1): 23.23%
% inhibition [2]: 25.92%
IC50 (hCav2.1 calcium channels): 7.84 mM
inhibition at 400 µM (Dopamine transporter (h)): 2.85%
% inhibition [3]: 25.95%
inhibition at 400 µM (Kinase, protein, Fyn (h)): 3.58%
inhibition at 400 µM (Adrenergic, alpha2A (h)): 15.6%
inhibition at 400 µM [4]: 0%
inhibition at 400 µM (Serotonin, 5HT2A (h)): 19.2%
% inhibition (Sigma 2): 6.11%
% inhibition (Serotonin, 5HT2C): 3.67%
% inhibition [5]: 6.78%
inhibition at 400 µM [6]: 5.7%
% inhibition (Serotonin, 5HT3): 10.41%
% inhibition (Neurokinin, NK1): 12.58%
inhibition at 400 µM [7]: 4.32%
% inhibition (Dopamine, D3): 0.0%
% inhibition (Histamine, H3): 0.0%
inhibition at 400 µM (Serotonin, 5HT1A (h)): 0.4%
% inhibition (Opioid, kappa 1): 5.39%
IC50, KV7.2 outward currents [8]: no inhibitory effect
inhibition at 400 µM [9]: 0%
% inhibition (Galanin, nonselective): 6.11%
intestinal transport M–S versus S–M and sensitivity to verapamil (P-glycoprotein): of the same magnitude and insensitive to the P-glycoprotein inhibitor verapamil
inhibition at 400 µM (Muscarinic, M4 (h)): 6.08%
% inhibition (Sodium, site 2): 34.46%
GABA inward current stimulation, α2β2γ2, Mean ± SEM ([10]; 50 μmol/L): 91.6 ± 2.7
GABA inward current stimulation, α2β2γ2, Mean ± SEM ([10]; 100 μmol/L): 97.0 ± 2.7
GABA inward current stimulation, α2β2γ2, Mean ± SEM ([10]; 250 μmol/L): 88.6 ± 3.2
effect on submaximal α2β2γ2 GABA currents ([10]; 250 μmol/L): slight decrease
GABA inward current stimulation, α2β2γ2, Mean ± SEM ([10]; 500 μmol/L): 89.8 ± 4.0
effect on submaximal α2β2γ2 GABA currents ([10]; 50–500 μmol/L, exception at 250 μmol/L): did not significantly change submaximal GABA currents
% inhibition (Glutamate, AMPA site): 0.0%
inhibition at 400 µM (Serotonin, 5HT6 (h)): 5.86%
neuronal firing in dissociated granule cells from human hippocampus (transient Na+ channels): significantly inhibited neuronal firing
% inhibition (Oxygenase, COX-2): 0.0%
% inhibition [11]: 0.0%
% inhibition (Sigma 1): 28.43%
% inhibition [12]: 0.0%
% inhibition (Serotonin, 5HT1B): 2.1%
inhibition at 400 µM (Dopamine, D1 (h)): 6.85%
inhibition at 400 µM (Serotonin, 5HT7 (h)): 0%
